Experimental data published in patent publication US20050222250A1, “Curcumin for the prevention and/or treatment of tissue damage” (priority 2002, published 2005).

Key:
[1] = test system: animals (rats, cats, dogs, pigs and monkeys); settings: fed to animals over a period of 60 weeks; cited from earlier work
[2] = test system: radiation-induced oral mucositis (mucosal ulceration) in the tongue of rats; experiment: Radiation-induced oral mucositis in rat tongue, single dose studies (Example 2); assay type: in vivo, Sprague-Dawley rats; settings: single dose irradiation of rat tongue; 0.5 ml per day oral gavage; placebo water
Text: The animals were maintained, and all experimental procedures performed in compliance with the Animal (Scientific Procedures) Act 1986. While under anaesthesia the animal's tongue was slightly extended outside and a region of the underside of the tongue was irradiated in situ with single doses of 2.27 MeV β-rays from a 5 mm or 11 mm diameter ^90Sr/^90Y plaque. The dose-rate of the 5 mm ^90Sr/^90Y plaque was ˜10 Gy/min and that of 11 mm source was ˜3 Gy/min at the surface of the mucus membrane 5 mm source was used for single dose study and 11 mm source was used for fractionated studies. The irradiation was carried out by simply positioning the sealed ^90Sr/^90Y plaque in contact with the surface of the tongue. The tongue was stretched gently and radioactive source was placed with a uniform pressure in all cases in order to avoid any local hypoxia. […]
A total of 144 rats were used for this part of study. […] From the day after irradiation, until any acute radiation-induced oral mucosal lesion had healed, the animals' tongues were assessed daily for the presence of radiation-induced mucositis (mucosal ulceration) under light anaesthesia, maintained with a 1.5% Halothane, oxygen mixture. […] The dose modification factor (DMF), defined as the ratio of the dose of radiation to cause mucositis in ‘active’ agent group to that in ‘placebo’ group, was calculated. […]

Compound	Doses that have shown no toxicity [1]	Dose modification factor (DMF), active agent group vs placebo group [2]
COc1cc(/C=C/C(=O)CC(=O)/C=C/c2ccc(O)c(OC)c2)ccc1O [Curcumin, diferuloylmethane]	500-5000 mg/kg body weight	–
Cc1c(C)c2c(c(C)c1O)CC[C@@](C)(CCC[C@H](C)CCC[C@H](C)CCCC(C)C)O2 [α-tocopherol, 5,7,8-trimethyltocol]	–	1.05
